Results on 17 molecules are retold here after patent publication US20050282818A1, “Ubiquitin ligase inhibitors” (Rigel Pharmaceuticals, Inc., priority 2004, published 2005).

One test has as its target T1, TRAF6/Uev1A/Ubc13 (Homo sapiens, UniProt Q9Y4K3).
T1 sequence (Q9Y4K3 1-522): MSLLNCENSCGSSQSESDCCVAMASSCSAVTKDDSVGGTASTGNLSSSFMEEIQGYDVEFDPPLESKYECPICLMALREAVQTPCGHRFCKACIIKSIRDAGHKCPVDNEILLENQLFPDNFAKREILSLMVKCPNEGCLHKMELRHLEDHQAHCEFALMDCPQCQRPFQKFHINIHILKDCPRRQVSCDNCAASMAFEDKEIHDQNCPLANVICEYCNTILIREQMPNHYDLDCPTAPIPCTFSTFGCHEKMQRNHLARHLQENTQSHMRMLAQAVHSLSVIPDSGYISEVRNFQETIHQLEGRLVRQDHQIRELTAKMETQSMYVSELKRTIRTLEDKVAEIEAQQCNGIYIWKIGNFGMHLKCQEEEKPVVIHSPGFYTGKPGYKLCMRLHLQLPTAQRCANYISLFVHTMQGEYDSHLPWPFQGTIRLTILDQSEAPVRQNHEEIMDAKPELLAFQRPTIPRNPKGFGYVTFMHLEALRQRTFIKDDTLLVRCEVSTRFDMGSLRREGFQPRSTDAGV
Kind of test: TRAF6/Uev1A/Ubc13 plate-based ubiquitin ligase assay. Format: biochemical. The method in brief:
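Ligase activity was read as luminescence from anti-Flag/HRP detection of Flag-ubiquitin bound to casein-blocked Ni-plates alongside His-ubiquitin after a 1 h room-temperature reaction. Buffer: 62.5 mM Tris pH 7.5, 6.25 mM MgCl2, 1.0 mM DTT, 2 μM ATP; E1, Uev1a/Ubc13 and TRAF6 added last to start. IC50s derived across compound concentrations.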

For test [1], the system named is ICAM-1 expression in A549 cells. In words: ICAM assay (IL-1 induced ICAM-1/CD54 expression in A549 cells). Format: cell-based, human. The note with it: Homo sapiens, A549, ICAM assay. The source says:
The expression of intercellular adhesion molecule (ICAM)-1 in endothelial cells is pivotal in supporting lymphocyte migration across the vascular endothelium. TNF/IL-1 induces the NF-kB pathway in which NF-kB acts as a transcription factor and activation of NF-kB induces ICAM expression. IkB inhibits NF-KB by binding to it and retaining NF-kB in the cytoplasm. Upon cytokine stimulation, several signaling molecule including TRAF6, IKKs, and TAK1 are activated which lead to the phosphorylation of IkB. Phosphorylated IkB is then ubiquitinated by the SCF complex and degraded by proteasome, thereby releasing NF-kB to translocate into the nucleus. In the nucleus, NF-kB binds to DNA and activates transcription of various genes that are involved in inflammation, cell survival, and apoptosis. The ICAM assay is a primary assay for HTS as well as a cell based assay for TRAF6 inhibitors.
The following materials are used 96-well plates; F12K complete medium that includes 10% FBS and 1% P/S (penicillin/streptomycin); 1×PBS; 5 ug/ml IL-1, Human CD54 (CALTAG Laboratory, Cat#MHCD5400-4); anti-mouse-IgG (Jackson Lab, Cat#115-035 146); and A549 cells.
Procedure. 10,000 A549 cells/well were seeded in 100 μl F12K complete medium in a 96-well white plate. The seeded plate was incubate at 37° C. incubator in 5% CO2 overnight. After the overnight incubation, 4 μl of diluted test compound was added and incubated for 1 hour at 37° C. After the 1 hour incubation, 4 μl of 25 ng/ml IL-1 was added to each well and the cells were stimulated at 37° C. for 4 hours.
After stimulation, the cells were stained with CD54 (1:1000 diluted with medium) and anti-mouse IgG (1:1100 diluted with medium) for 1 hour. Subsequently, the medium was removed and each well was washed with 200 μl of PBS three times. Detection of activity was performed by addition of 100 μl/well of lumino substrate.

In another test the target is APC11/APC2 (Homo sapiens, UniProt Q9NYG5+Q9UJX6). In words: APC-11/APC-2 ligase assay (APC auto ubiquitination). Format: biochemical. The settings on record: APC assay. The method, then: For the assays described below, the TRAF6/Uev1A/UBC13 assay is the biochemical plate-based assay of TRAF6 ligase activity using Ubc13 as the E2 enzyme. The gel-based assay is the biochemical solution-based TRAF6 ligase assay (by SDS-PAGE and Western blot) to confirm the plate-based ELISA assay. The APC assay is an assay which is another E3 ligase (APC2/APC11) biochemical assay.
Chain of APC11/APC2 (Q9NYG5 whole entry): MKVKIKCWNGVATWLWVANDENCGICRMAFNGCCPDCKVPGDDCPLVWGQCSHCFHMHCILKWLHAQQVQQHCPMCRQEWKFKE
Chain of APC11/APC2 (Q9UJX6 whole entry): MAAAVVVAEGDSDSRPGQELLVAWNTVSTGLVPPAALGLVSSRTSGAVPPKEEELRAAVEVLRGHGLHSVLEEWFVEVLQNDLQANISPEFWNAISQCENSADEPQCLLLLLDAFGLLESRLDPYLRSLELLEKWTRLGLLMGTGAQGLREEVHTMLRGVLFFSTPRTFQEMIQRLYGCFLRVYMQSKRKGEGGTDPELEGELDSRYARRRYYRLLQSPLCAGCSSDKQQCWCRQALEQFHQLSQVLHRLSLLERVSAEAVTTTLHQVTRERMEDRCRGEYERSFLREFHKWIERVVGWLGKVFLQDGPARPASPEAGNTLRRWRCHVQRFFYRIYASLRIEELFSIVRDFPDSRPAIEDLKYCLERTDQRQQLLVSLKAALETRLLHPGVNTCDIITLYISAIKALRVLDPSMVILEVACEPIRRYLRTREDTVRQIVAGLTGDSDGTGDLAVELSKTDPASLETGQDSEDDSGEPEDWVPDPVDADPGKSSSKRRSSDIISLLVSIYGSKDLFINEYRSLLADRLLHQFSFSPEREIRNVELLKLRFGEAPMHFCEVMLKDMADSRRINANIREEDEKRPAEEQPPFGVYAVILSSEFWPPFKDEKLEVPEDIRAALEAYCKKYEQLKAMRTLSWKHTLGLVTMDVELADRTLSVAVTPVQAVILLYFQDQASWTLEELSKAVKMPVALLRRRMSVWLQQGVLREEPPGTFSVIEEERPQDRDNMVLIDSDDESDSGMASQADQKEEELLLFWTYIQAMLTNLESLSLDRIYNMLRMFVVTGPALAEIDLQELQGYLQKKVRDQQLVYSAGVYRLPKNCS
E3 (His APC11/APC2— “APC”) auto ubiquitination was measured as described in U.S. patent application Ser. No. 09/826,312 (Publication No. U.S. 2002 0042083 A1), which is incorporated by reference in its entirety. Details of the protocol are described below. Activity in the presence of the compound was determined relative to a parallel control in which only DMSO was added. Values of the IC50 were typically determined using 6 or 8 different concentrations of the compound, although as few as 2 concentrations may be used to approximate the IC50 value.
Nickel coated 96 well plates (Pierce 15242) were blocked for 1 hour with 100 μl of blocking buffer at room temperature. The plates were washed 4 times with 225 μl of 1 […]PBS and 80 μl of the reaction buffer were added that contained 100 ng/well of Flag ubiquitin. To this, 10 μl of the test compound diluted in DMSO were added. After the test compound was added, 10 μl of E1 (human), E2 (Ubch5c), and APC in Protein Buffer was added to obtain a final concentration of 5 ng/well of E1, 20 ng/well of E2 and 100 ng/well of APC. The plates were shaken for 10 minutes and incubated at room temperature for 1 hour. After incubation, the plates were washed 4 times with 225 μl of 1×PBS and 100 μl/well of Antibody Mix were added to each well. The plates were incubated at room temperature for another hour after which they were washed 4 times with 225 μl of 1×PBS and 100 μl/well of Lumino substrate were added to each well. The luminescence was measured by using a BMG luminescence microplate reader. The Blocking Buffer (1% Casein in 1×PBS) was stored at 4° C. until use.
The reaction buffer consisted of 62.5 mM Tris pH 7.6 (Trizma Base—Sigma T 8524), 3 mM MgCl2 (Magnesium Chloride—Sigma M 2393), 1 mM DTT (Sigma D 9779), 2.5 mM ATP (Roche Boehringer Mann Corp. 635 316), 100 ng/well of Flag ubiquitin, 0.1% BSA (Sigma A 7906), and 0.05% Tween 20 (Sigma P 7949).
The Protein Buffer consisted of 20 mM Tris pH 7.6, 10% glycerol (Sigma G 5516) and 1 mM DTT.
The antibody mix consisted of 0.25% BSA (Sigma A 7906) in 1×PBS, 1/50,000 anti Flag (Sigma F 3165), 1/100,000 of anti Mouse IgG HRP (Jackson Imrunoresearch #115 035 146).
The substrate mix consisted of SuperSignal Substrate from Pierce (catalog number 37070ZZ) and was prepared by mixing 100 ml of the peroxide solution, 100 ml of the enhancer solution and 100 ml of Milli Q® water.

Bounds are passed on as bounds.

As to `Cc1ccc(F)cc1NS(=O)(=O)c1ccc(Cl)c2nonc12` [compound 351, 7-chloro-N-(5-fluoro-2-methylphenyl)-2,1,3-benzoxadiazole-4-sulfonamide], the IC50 (commonly the midpoint of a concentration-inhibition curve) was at least 20 µM at TRAF6/Uev1A/Ubc13, 1 to 20 µM in test [1] and at least 20 µM at APC11/APC2.

Consider `Cc1cccc(C(C)C)c1NS(=O)(=O)c1ccc(Cl)c2nonc12` [compound 352, 7-chloro-N-(2-isopropyl-6-methylphenyl)-2,1,3-benzoxadiazole-4-sulfonamide], for which the IC50 at TRAF6/Uev1A/Ubc13 was at least 20 µM; in test [1] it was 1 to 20 µM; on APC11/APC2, at least 20 µM.

Consider `Cc1cccc(C)c1NS(=O)(=O)c1ccc(Cl)c2nonc12` [compound 353, 7-chloro-N-(2,6-dimethylphenyl)-2,1,3-benzoxadiazole-4-sulfonamide], for which the IC50 against TRAF6/Uev1A/Ubc13 was at least 20 µM; in test [1], 1 to 20 µM; against APC11/APC2, at least 20 µM.

For `Cc1ccc(NS(=O)(=O)c2ccc(Cl)c3nonc23)c(Cl)c1` [compound 354, 7-chloro-N-(2-chloro-4-methylphenyl)-2,1,3-benzoxadiazole-4-sulfonamide], the IC50 at TRAF6/Uev1A/Ubc13 is at least 20 µM; in test [1], 1 to 20 µM; against APC11/APC2, at least 20 µM.

`Cc1cc(C)c(NS(=O)(=O)c2ccc(Cl)c3nonc23)c(C)c1` [compound 355, 7-chloro-N-mesityl-2,1,3-benzoxadiazole-4-sulfonamide]: the IC50 (at TRAF6/Uev1A/Ubc13; in test [1]; on APC11/APC2) was at least 20 µM each time.

As for `COc1ccccc1NS(=O)(=O)c1ccc(Cl)c2nonc12` [compound 356, 7-chloro-N-(2-methoxyphenyl)-2,1,3-benzoxadiazole-4-sulfonamide], the IC50 on TRAF6/Uev1A/Ubc13 was at least 20 µM; in test [1], 1 to 20 µM; against APC11/APC2 it was at least 20 µM.

With `O=S(=O)(Nc1c(F)cc(F)cc1F)c1ccc(Cl)c2nonc12` [compound 357, 7-chloro-N-(2,4,6-trifluorophenyl)-2,1,3-benzoxadiazole-4-sulfonamide], the 50% inhibitory concentration (IC50) (on TRAF6/Uev1A/Ubc13; in test [1]; on APC11/APC2) was at least 20 µM in each case.

Take `Cc1cc(F)ccc1NS(=O)(=O)c1ccc(Cl)c2nonc12` [compound 358, 7-chloro-N-(4-fluoro-2-methylphenyl)-2,1,3-benzoxadiazole-4-sulfonamide]: the IC50 (at TRAF6/Uev1A/Ubc13; in test [1]; against APC11/APC2) was at least 20 µM each time.

`COc1ccc(OC)c(NS(=O)(=O)c2ccc(Cl)c3nonc23)c1` [compound 359, 7-chloro-N-(2,5-dimethoxyphenyl)-2,1,3-benzoxadiazole-4-sulfonamide]: the IC50 at TRAF6/Uev1A/Ubc13 was at least 20 µM; in test [1] it was 1 to 20 µM; against APC11/APC2 it was at least 20 µM.

Consider `COC(=O)c1ccc(Cl)cc1NS(=O)(=O)c1ccc(Cl)c2nonc12` [compound 360, methyl 4-chloro-2-{[(7-chloro-2,1,3-benzoxadiazol-4-yl)sulfonyl]amino}benzoate], for which the IC50 is at least 20 µM against TRAF6/Uev1A/Ubc13, 1 to 20 µM in test [1] and at least 20 µM on APC11/APC2.

`COC(=O)c1ccc(Cl)cc1Nc1ccc(S(=O)(=O)Nc2cc(Cl)ccc2C(=O)OC)c2nonc12` [compound 361, methyl 4-chloro-2-(7-[N-{5-chloro-2-(methoxycarbonyl)phenyl}sulfamoyl]-2,1,3-benzoxadiazol-4-ylamino)benzoate]: the IC50 against TRAF6/Uev1A/Ubc13 was 1 to 20 µM; in test [1], at least 20 µM; against APC11/APC2 it was at least 20 µM.

Consider `COc1cc(Cl)c(C)cc1NS(=O)(=O)c1ccc(Cl)c2nonc12` [compound 362, 7-chloro-N-(4-chloro-2-methoxy-5-methylphenyl)-2,1,3-benzoxadiazole-4-sulfonamide], for which the values for the 50% inhibitory concentration (IC50) (at TRAF6/Uev1A/Ubc13; in test [1]; against APC11/APC2) were at least 20 µM, 1 to 20 µM and at least 20 µM, respectively.

For the molecule `O=S(=O)(Nc1ccc2[nH]ccc2c1)c1ccc(Cl)c2nonc12` [compound 363, 7-chloro-N-(1H-indol-5-yl)-2,1,3-benzoxadiazole-4-sulfonamide], the IC50 against TRAF6/Uev1A/Ubc13 was at least 20 µM; in test [1], 1 to 20 µM; against APC11/APC2, at least 20 µM.

With `O=S(=O)(Nc1ccc(F)cc1F)c1ccc(Cl)c2nonc12` [compound 364, 7-chloro-N-(2,4-difluorophenyl)-2,1,3-benzoxadiazole-4-sulfonamide], the IC50 (against TRAF6/Uev1A/Ubc13; in test [1]; at APC11/APC2) was at least 20 µM in each case.

Turning to `O=S(=O)(Nc1cc(Cl)ccc1Cl)c1ccc(Cl)c2nonc12` [compound 365, 7-chloro-N-(2,5-dichlorophenyl)-2,1,3-benzoxadiazole-4-sulfonamide], the IC50 (against TRAF6/Uev1A/Ubc13; in test [1]; against APC11/APC2) was at least 20 µM throughout.

Consider `O=S(=O)(Nc1ccccc1OC(F)(F)F)c1ccc(Cl)c2nonc12` [compound 366, 7-chloro-N-(2-[trifluoromethoxy]phenyl)-2,1,3-benzoxadiazole-4-sulfonamide], for which the IC50 against TRAF6/Uev1A/Ubc13 is at least 20 µM; in test [1], 1 to 20 µM; against APC11/APC2 it was at least 20 µM.

With `COc1ccc(OC)c(NS(=O)(=O)c2ccc(Nc3ccccc3OC)c3nonc23)c1` [compound 367, N-(2,5-dimethoxyphenyl)-7-([2-methoxyphenyl]amino)-2,1,3-benzoxadiazole-4-sulfonamide], the 50% inhibitory concentration (IC50) (against TRAF6/Uev1A/Ubc13; in test [1]; against APC11/APC2) was at least 20 µM each time.
